In article PMC5504357, “Antifungal Potential of Copper(II), Manganese(II) and Silver(I) 1,10-Phenanthroline Chelates Against Multidrug-Resistant Fungal Species Forming the Candida haemulonii Complex: Impact on the Planktonic and Biofilm Lifestyles” (Frontiers in Microbiology, 2017):
≈ marks a conversion by molar mass, not a printed value. Where two headings read alike, the source gives them in different places.

Key:
Candida duobushaemulonii = test: Planktonic growth, broth microdilution (CLSI M27-A3), MIC; type: cell-based
Source text: (§1) Three clinical isolates of each species that form the C. haemulonii complex were used in this study: C. haemulonii (LIPCh4 from finger nail, LIPCh7 from toe nail, and LIPCh12 from blood), C. duobushaemulonii (LIPCh1 from finger nail, LIPCh6 from toe nail, and LIPCh8 from blood) and C. haemulonii var. vulnera (LIPCh5 from toe nail, LIPCh9 from urine, and LIPCh11 from blood) (Ramos et al., [2015]). The fungal isolates were identified by the automatized system VITEK® 2 and then characterized by ITS1-5.8S-ITS2 gene sequencing (Ramos et al., [2015]). Fungal cells were cultured in Sabouraud-dextrose medium under constant agitation (130 rpm) for 48 h at 37°C. Human lung adenocarcinoma A549 cells were maintained in culture flasks containing DMEM medium supplemented with 10% fetal bovine serum at 37°C in an atmosphere of 5% CO2.
(§2) Susceptibility profile assays were performed in accordance with the broth microdilution protocol described in the document M27-A3 published by the Clinical and Laboratory Standards Institutes (CLSI, [2008]). Samples of the test chelates were dissolved in DMSO (500 μL) and then serially diluted in a 96-well plate containing RPMI 1640 (Sigma-Aldrich, USA) to give the concentration range of 0.0625-32 mg/L. Aqueous solutions of the metal-free phen ligand and the simple metal salts, MnCl2, CuCl2, and AgNO3, were also screened over the same concentration range. Caspofungin (Sigma-Aldrich) was used as a classical antifungal agent able to block the growth of all clinical isolates of C. haemulonii species as previously reported by our research group (Ramos et al., [2015]). Water dilutions containing DMSO concentrations corresponding to those used to prepare the drug solutions were assessed in parallel. Untreated and compound-treated fungal cells were incubated at 37°C for 48 h and the minimal inhibitory concentration (MIC) was established as the lowest compound concentration where no cellular growth could be detected by visual inspection in accordance to the CLSI recommendation. The geometric mean of the MIC values (GM-MIC) of each compound against all the fungal isolates was calculated using the software, Microsoft Office Excel 2013.

[1] = system: Candida haemulonii var. vulnera; test: as above; type: cell-based
Source text: as §1, §2

Candida haemulonii = test: as above; type: cell-based
Source text: as §1, §2

C. haemulonii complex = test: Planktonic growth, overall across all nine isolates; type: cell-based, Candida haemulonii complex; conditions: for MIC / Overall GM-MIC: geometric mean across all nine strains; for MIC: read-out: Overall GM-MIC; for effect on planktonic fungal growth/viability (in words): nine clinical isolates, 0.0625-32 mg/L
Source text: as §1, §2

A549 cells = test: Mammalian cell toxicity (MTT assay) and selectivity index; type: cell-based, Human
Source text: as §1
The cytotoxicity was evaluated using the MTT [3-(4,5-dimethylthiazol-2-yl)-2,5-diphenyl tetrazolium bromide] (Sigma-Aldrich) assay (Mosmann, [1983]). A549 cells (10^4) were seeded into tissue culture plates (TPP, Switzerland) and cultured for 24 h at 37°C in a 5% CO2 in order to obtain cellular confluence. The wells were then washed twice with DMEM to remove non-adherent cells and the test compounds were added (in concentrations ranging from 0.0313 to 512 μg/mL) to plates containing DMEM, followed by a 48 h incubation period under the same conditions mentioned above. The cellular viability was evaluated by adding MTT to each well and incubating the plates in the dark for 3 h, allowing the viable cells containing active mitochondrial dehydrogenase enzymes to metabolize MTT-tetrazolium salt into purple formazan. The formazan crystals were then dissolved in DMSO (100 μL) and the absorbance (450 nm) measured using a Thermomax Molecular Device microplate reader. The concentration capable of reducing cellular viability by 50% (CC50) was calculated, and the selectivity index (SI) determined using the following equation: A549 CC50/C. haemulonii complex GM-MIC.

[2] = isolate LIP Ch1, planktonic, 48 h, 37°C
[3] = geometric mean of three C. duobushaemulonii isolates
[4] = isolate LIP Ch6, planktonic, 48 h, 37°C
[5] = isolate LIP Ch8, planktonic, 48 h, 37°C
[6] = geometric mean of three C. haemulonii var. vulnera isolates
[7] = isolate LIP Ch5, planktonic, 48 h, 37°C
[8] = isolate LIP Ch9, planktonic, 48 h, 37°C
[9] = isolate LIP Ch11, planktonic, 48 h, 37°C
[10] = geometric mean of three C. haemulonii isolates
[11] = isolate LIP Ch4, planktonic, 48 h, 37°C
[12] = isolate LIP Ch7, planktonic, 48 h, 37°C
[13] = isolate LIP Ch12, planktonic, 48 h, 37°C

SMILES | MIC (Candida duobushaemulonii; [2]) | GM-MIC (Candida duobushaemulonii; [3]) | MIC (Candida duobushaemulonii; [4]) | MIC (Candida duobushaemulonii; [5]) | GM-MIC [1, 6] | MIC [1, 7] | MIC [1, 8] | MIC [1, 9] | GM-MIC (Candida haemulonii; [10]) | MIC (Candida haemulonii; [11]) | MIC (Candida haemulonii; [12]) | MIC (Candida haemulonii; [13]) | Overall GM-MIC (C. haemulonii complex) | effect on planktonic fungal growth/viability (in words) (C. haemulonii complex) | A549 (CC50) (A549 cells; MTT, 48 h incubation) | MIC (C. haemulonii complex; in μM) | A549 (CC50) (A549 cells) | further results
CC[C@H](C)C[C@H](C)CCCCCCCCC(=O)N[C@H]1C[C@@H](O)[C@@H](NCCN)NC(=O)[C@@H]2[C@@H](O)CCN2C(=O)[C@H]([C@H](O)CCN)NC(=O)[C@H]([C@H](O)[C@@H](O)c2ccc(O)cc2)NC(=O)[C@@H]2C[C@@H](O)CN2C(=O)[C@H]([C@@H](C)O)NC1=O [Caspofungin, reference compound] | 0.125 µg/mL (≈ 0.114 µM) |  |  |  |  |  |  |  |  |  |  |  |  |  |  |  |  | MIC (Candida duobushaemulonii; Candidozyma duobushaemuli, 48 h): 0.125 µg/mL (≈ 0.114 µM); MIC (Candida duobushaemulonii; Candidozyma duobushaemuli, 48 h, isolate LIP Ch6, planktonic, 48 h, 37°C, read-out: MIC): 0.25 µg/mL (≈ 0.229 µM); MIC (Candida duobushaemulonii; Candidozyma duobushaemuli, geometric mean of three C. duobushaemulonii isolates, read-out: GM-MIC): 0.157 µg/mL (≈ 0.144 µM); MIC ([1]; Candidozyma haemuli, 48 h, isolate LIP Ch5, planktonic, 48 h, 37°C, read-out: MIC): 0.25 µg/mL (≈ 0.229 µM); MIC ([1]; Candidozyma haemuli, 48 h, isolate LIP Ch9, planktonic, 48 h, 37°C, read-out: MIC): 0.25 µg/mL (≈ 0.229 µM); MIC ([1]; Candidozyma haemuli, 48 h, isolate LIP Ch11, planktonic, 48 h, 37°C, read-out: MIC): 0.5 µg/mL (≈ 0.457 µM); MIC ([1]; Candidozyma haemuli, geometric mean of three C. haemulonii var. vulnera isolates, read-out: GM-MIC): 0.315 µg/mL (≈ 0.288 µM); MIC (Candida haemulonii; Candidozyma haemuli, 48 h): 0.125 µg/mL (≈ 0.114 µM); MIC (Candida haemulonii; Candidozyma haemuli, 48 h, isolate LIP Ch4, planktonic, 48 h, 37°C, read-out: MIC): 0.5 µg/mL (≈ 0.457 µM); MIC (Candida haemulonii; Candidozyma haemuli, 48 h, isolate LIP Ch7, planktonic, 48 h, 37°C, read-out: MIC): 0.25 µg/mL (≈ 0.229 µM); MIC (Candida haemulonii; Candidozyma haemuli, geometric mean of three C. haemulonii isolates, read-out: GM-MIC): 0.25 µg/mL (≈ 0.229 µM); MIC (C. haemulonii complex; Candidozyma haemuli, in μM): 0.18 µM; MIC (C. haemulonii complex; Candidozyma haemuli): 0.23 µg/mL
[Cl][Cu][Cl] [CuCl2, reference compound] | >32 µg/mL | >32 µg/mL | >32 µg/mL | >32 µg/mL | >32 µg/mL | >32 µg/mL | >32 µg/mL | >32 µg/mL | >32 µg/mL | >32 µg/mL | >32 µg/mL | >32 µg/mL | > 32 µg/mL | no appreciable effects | 123.68 µg/mL |  |  | 
[Cl][Mn][Cl] [MnCl2, reference compound] | >32 µg/mL | >32 µg/mL | >32 µg/mL | >32 µg/mL | >32 µg/mL | >32 µg/mL | >32 µg/mL | >32 µg/mL | >32 µg/mL | >32 µg/mL | >32 µg/mL | >32 µg/mL | > 32 µg/mL | no appreciable effects | 133.76 µg/mL |  |  | 
O.O.O=C([O-])c1ccccc1C(=O)[O-].[Cu+2].c1cnc2c(c1)ccc1cccnc12 [compound 1, [Cu(ph)(phen)(H2O)2]] | >32 µg/mL | >32 µg/mL | >32 µg/mL | >32 µg/mL | >32 µg/mL | >32 µg/mL | >32 µg/mL | >32 µg/mL | >32 µg/mL | >32 µg/mL | >32 µg/mL | >32 µg/mL | > 32 µg/mL |  |  | > 72 µM | 0.53 µg/mL | 
CCO.CCO.O.O.O.O=C([O-])c1ccccc1C(=O)[O-].[Cu+2].c1cnc2c(c1)ccc1cccnc12.c1cnc2c(c1)ccc1cccnc12 [compound 2, [Cu(ph)(phen)2].3H2O.2EtOH] | >32 µg/mL | >32 µg/mL | >32 µg/mL | >32 µg/mL | >32 µg/mL | >32 µg/mL | >32 µg/mL | >32 µg/mL | >32 µg/mL | >32 µg/mL | >32 µg/mL | >32 µg/mL | > 32 µg/mL |  |  | > 43.52 µM | 1.93 µg/mL | 
CCO.CCO.O=C([O-])c1ccc(C(=O)[O-])cc1.O=C([O-])c1ccc(C(=O)[O-])cc1.[Cu+2].[Cu+2].c1cnc2c(c1)ccc1cccnc12.c1cnc2c(c1)ccc1cccnc12.c1cnc2c(c1)ccc1cccnc12.c1cnc2c(c1)ccc1cccnc12 [compound 4, [{Cu(phen)2}2(terph)](terph).13.5H2O.2EtOH] | >32 µg/mL | >32 µg/mL | >32 µg/mL | >32 µg/mL | 32 µg/mL | 32 µg/mL | 32 µg/mL | 32 µg/mL | >32 µg/mL | >32 µg/mL | >32 µg/mL | >32 µg/mL | > 32 µg/mL |  | 3.86 µg/mL | > 21.92 µM |  | 
